Source: patent publication US20200000091A1, “Microbe Proliferation Inhibitor, Method for Inhibiting Proliferation of Microbes, UV Resistance-Improving Agent, Method for Improving UV Resistance, Artificial Protein Formation Body and method for Manufacturing Same, Artificial Protein Solution, and Coloring Agent” (Keio University, priority 2017, published 2020)

System: Escherichia coli wild strain (W3110)
Test: Growth of Escherichia coli in M9 medium, absorbance (OD600) measured every hour
Type: cell-based
Conditions: 1 mM xanthurenic acid in M9 medium (Tris-HCl buffer pH 8), compared with Comparative Example 1 (no xanthurenic acid), FIG. 1
Protocol: An Escherichia coli wild strain (W3110) was cultured in M9 medium (7 mg/ml K2HPO4, 3 mg/ml KH2PO4, 0.5 mg/ml NaCl, 1 mg/ml NH4Cl, 1 mg/ml glucose, 1 mM MgSO4.7H2O, 14.7 μg/ml CaCl2)) containing 10 μg/ml thiamine. In preparing the medium, a Tris-HCl buffer solution (pH 8) was used instead of water in consideration of the solubility of xanthurenic acid. The obtained overnight cultures were diluted into 0.8% with 20 ml of a fresh medium containing 1 mM xanthurenic acid (Wako Pure Chemical Industries, Ltd.) to obtain a sample solution. Absorbance (OD600) was measured as to this sample solution every hour by using Nano Photometer (Implen GmbH).
The preparation and measurement of a sample solution were performed in the same way as in Example 1 except that the overnight cultures were diluted with a fresh medium containing no xanthurenic acid.

SMILES: O=C(O)c1cc(O)c2cccc(O)c2n1 [Example 1, xanthurenic acid]
- absorbance (OD600); proliferation of Escherichia coli: proliferation of Escherichia coli was inhibited
